Data published in US20110160255A1, “INHIBITORS OF AKT ACTIVITY” (priority 2008, published 2011).

Biological target: T1, full length AKT1 (Homo sapiens, UniProt P31749)
T1 construct: His tag (from vector pFastBacHTb) (N); made in house; host or cells: Baculovirus, insect cells (virus made in Sf9, T. ni cells infected; the purification text says sf9 cells)
Experiment: Full-length AKT enzyme assay (substrate phosphorylation, SPA)
Assay type: biochemical
Conditions: in at least one experimental run; pIC50 = -log(IC50), IC50 in molar units; 4 uM ATP, 10 nM activated enzyme; read-out: pIC50 against full length AKT1 (converted)
Excerpt: Full-length human AKT1 gene was amplified by PCR from a plasmid containing myristylated-AKT1-ER (gift from Robert T. Abraham, Duke University under MTA, described in Klippel et al. in Molecular and Cellular Biology 1998 Volume 18 p. 5699) using the 5′ primer: SEQ. ID NO: 2 5′ […] 3′ and the 3′ primer: SEQ. ID NO: 3 […] 3′. The 5′ primer included a BamHI site and the 3′ primer included an XhoI site for cloning purposes. The resultant PCR product was subcloned in pcDNA3 as a BamHI/XhoI fragment. A mutation in the sequence (TGC) coding for a Cysteine^25 was converted to the wild-type AKT1 sequence (CGC) coding for an Arginine^25 by site-directed mutagenesis using the QuikChange® Site Directed Mutagenesis Kit (Stratagene). The AKT1 mutagenic primer: SEQ. ID NO: 4 5′[…] and selection primer: SEQ. […] For expression/purification purposes, AKT1 was isolated as a BamHI/XhoI fragment and cloned into the BamHI/XhoI sites of pFastbacHTb (Invitrogen).
Expression was done using the BAC-to-BAC Baculovirus Expression System from Invitrogen (catalog #10359-016). […]
Compounds of the present invention were tested for AKT 1, 2, and 3 protein serine kinase inhibitory activity in substrate phosphorylation assays. […] Substrate phosphorylation was detected by the following procedure. […]

T1 sequence (P31749 whole entry): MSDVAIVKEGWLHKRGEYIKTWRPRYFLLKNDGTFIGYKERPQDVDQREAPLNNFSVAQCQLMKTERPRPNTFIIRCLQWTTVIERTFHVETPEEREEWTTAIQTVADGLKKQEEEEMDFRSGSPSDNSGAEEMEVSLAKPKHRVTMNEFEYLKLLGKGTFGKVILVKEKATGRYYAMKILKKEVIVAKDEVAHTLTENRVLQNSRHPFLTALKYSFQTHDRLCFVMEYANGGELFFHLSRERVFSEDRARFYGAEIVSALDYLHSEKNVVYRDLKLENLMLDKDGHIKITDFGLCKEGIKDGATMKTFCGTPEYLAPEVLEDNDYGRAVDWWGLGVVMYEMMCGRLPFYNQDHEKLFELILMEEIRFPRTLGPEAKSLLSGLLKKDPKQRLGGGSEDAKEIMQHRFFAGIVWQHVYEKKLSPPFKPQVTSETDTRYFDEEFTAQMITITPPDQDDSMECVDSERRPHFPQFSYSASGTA

IC50: 501 nM
SMILES: Cn1nccc1-c1nc(C(=O)N[C@H](CN)Cc2cccc(F)c2)cs1 [Example 1, N-{(1S)-2-amino-1-[(3-fluorophenyl)methyl]ethyl}-2-(1-methyl-1H-pyrazol-5-yl)-1,3-thiazole-4-carboxamide]
